Assay results as given in patent CN107801692A, “一种氯胺酮诱导精神分裂症动物模型及其机制研究” (Kunming Medical University, priority 2017, dated 2018).

What was measured:
[1] = system: mice (小鼠); assay: Suspension test (悬吊实验), limb weakness; format: in vivo, Kunming mouse; details: i.p., single administration (day 1)
[2] = system: SOD; assay: Serum SOD determination; format: in vivo, Kunming mouse; details: 25, 50, 100 mg/kg, i.p., once daily for 7 days; with increasing dose
[3] = system: mice (小鼠); assay: Pole climbing test (爬杆实验), ataxia; format: in vivo, Kunming mouse; details: medium and large dose (50, 100 mg/kg), i.p., once daily for 7 days; P<0.01
[4] = system: mice (小鼠); assay: Y-maze test (Y型迷宫实验), learning and memory; format: in vivo, Kunming mouse; details: medium and large dose (50, 100 mg/kg), i.p., once daily for 7 days; P<0.01
[5] = system: mice (小鼠); assay: Open field test (旷场实验), hyperlocomotion; format: in vivo, Kunming mouse; details: medium and large dose (50, 100 mg/kg), i.p., single administration (day 1); P<0.01
[6] = system: mice (小鼠); assay: Schizophrenia-like symptoms overall (behavioural tests together); format: in vivo, Kunming mouse; details: i.p.
[7] = system: depressed patients (抑郁患者); details: 0.5 mg/kg; Liebrenz et al.; cited from earlier work
[8] = system: SOD; assay: Brain tissue SOD determination; format: in vivo, Kunming mouse; details: 25, 50, 100 mg/kg, i.p., once daily for 7 days; with increasing dose
[9] = system: NOX4 protein (NOX4蛋白); assay: NOX4 protein expression (immunohistochemistry); format: in vivo, Kunming mouse; details: i.p.
[10] = system: mice (小鼠); assay: Stereotyped behaviour (刻板行为); format: in vivo, Kunming mouse; details: medium and large dose (50, 100 mg/kg), i.p., P<0.01
[11] = system: rats (大鼠); details: repeated injection; Trujillo et al.; cited from earlier work
[12] = 25, 50, 100 mg/kg, single or repeated administration

In the case of `CNC1(c2ccccc2Cl)CCCCC1=O` (stereo not drawn) [氯胺酮], the limb weakness ([1]; medium and large dose (50, 100 mg/kg), P<0.01) is reported as “四肢无力”, the limb weakness ([1]; small dose 25 mg/kg, P<0.05) is reported as “产生四肢无力” and the “serum SOD activity, dose trend” value [2] is reported as “逐渐降低”. The ataxia [3] was “共济失调现象”, the “learning and memory ability” value [4] was “学习记忆能力下降” and the hyperlocomotion [5] was “明显的运动亢进”. The schizophrenia-like symptoms [6, 12] was “均可诱导小鼠产生类似精神分裂症的症状”, the “schizophrenia-like symptoms, dose dependence” value [6, 12] was “具有一定的剂量依赖趋势” and the “stability of part of the symptoms” value ([6]; after 7 days of repeated administration) was “部分症状具有更好的稳定性”. The schizophrenia-like symptoms ([6]; large dose 100 mg/kg) was “更为明显”, the “symptoms of depressed patients” value [7] was “显著改善” and the “brain tissue SOD activity, dose trend” value [8] was “逐渐降低”. The “NOX4 protein expression, dose dependence” value ([9]; 25, 50, 100 mg/kg) was “有一定的剂量依赖趋势”, the “NOX4 protein expression, pairwise comparison among dose groups” value ([9]; 25, 50, 100 mg/kg, P<0.01) was “具有显著性差异” and the NOX4 protein expression ([9]; different doses of ketamine (25, 50, 100 mg/kg), P<0.01) was “显著增加”. The stereotyped behaviour ([10]; once daily for 7 days) was “刻板行为增加”, the stereotyped behaviour ([10]; single administration (day 1)) was “刻板行为” and the activity of rats [11] was “活动增多”.
